Here are results for four molecules from patent US10233151B2, “Use of a novel 3-aryl-4-catechol-pyrrole-N-propanol compound and the derivatives thereof to treat cancer and diseases related to excessive angiogenesis” (Centre National de la Recherche Scientifique (CNRS), priority 2014, dated 2019).

Like-named read-outs stand apart in the source and are kept apart here.

This series relates to HCT-116 cells. The series can be described thus: Cell growth test (CellTiter-Blue), HCT-116. The conditions noted are these: for cytotoxic effect relative to compound (1): 72 hours; for IC50: Homo sapiens, HCT-116, 48 h, 48 hours, read-out: IC50, cytotoxic effect. Type of series: cell-based. How it is done:
The biological activity of compound (1), as well as that of its structural analogues, was studied in vitro on 7 different cancer cell lines: • HCT-116 (colorectal cancer) • U87 (glioblastoma) • K562 (myeloid leukemia) and K562 R • MDA-MB 231 (mammary adenocarcinoma) • MCF-7 (mammary adenocarcinoma) • A549 (pulmonary alveolar adenocarcinoma)
The cells selected for this study were incubated at 37° C. in the presence of compound (1) added in the culture medium at various concentrations and at various times. The set of experiments carried out made it possible to determine the degree of cytotoxicity of the compound tested (IC50), its capacity to induce cell death by apoptosis, in close dependence on extracellular superoxide anion for its activation. […]
Background: Alamar Blue is a resazurin reagent that responds to reducing activity.

On to `CCOCCCn1cc(-c2ccccc2)c(-c2ccc(O)c(O)c2)c1` [(4), 4-(1-(3-Ethoxypropyl)-4-phenyl-1H-pyrrole-3-yl)benzene-1,2-diol], for which, where the note is “HCT-116, normoxia”, the “cytotoxic effect relative to compound (1)” value is listed as “does not substantially change the IC50 value”.
Same read-out and setting: as for `OCCCn1cc(-c2ccccc2)c(-c2ccc3c(c2)OCCO3)c1` [(2), 3-(3-(2,3-dihydrobenzo[b][1,4]dioxin-6-yl)-4-phenyl-1H-pyrrole-1-yl)propan-1-ol], the entry is “loss of cytotoxicity”.
As usually defined, the IC50 is the concentration at which inhibition is half-maximal. As to `O=C1C=C(c2cn(CCCO)cc2-c2ccccc2)C=C(C2=C(O)C(c3cn(CCCO)cc3-c3ccccc3)=CC(O)C2O)C1=O` (centres unmarked) [dimer MH+ 631], the IC50 runs as follows: (HCT-116, hypoxia (2% O2)) 10 µM; (HCT-116, normoxia) 7.5 µM.
In the case of `OCCCn1cc(-c2ccccc2)c(-c2ccccc2)c1` [(3), 3-(3,4-Diphenyl-1H-pyrrol)propan-1-ol], for the setting “HCT-116, normoxia”, the “cytotoxic effect relative to compound (1)” value is given as “loss of cytotoxicity”.
